Measurements as given in US9988635B2, “Modulation of growth hormone receptor expression and insulin-like growth factor expression” (Antisense Therapeutics Limited, priority 2003, dated 2018).
In the oligonucleotide strings, read from the 5' end, every base follows the letter of its sugar. An asterisk marks phosphorothioate; unmarked linkages are phosphodiester. Other units and linkages are bracketed, terminal groups are in braces. A string of capitals states the bases alone. e = 2'-O-(2-methoxyethyl) (MOE); [5mC] = 5-methylcytosine; d = 2'-deoxy (DNA)

Tested on: human growth hormone receptor mRNA
Test: Inhibition of human growth hormone receptor mRNA levels in MCF7 cells, quantitative real-time PCR
Assay type: cell-based
Parameters: concentration or dose not given beside the values
Settings: averages from three experiments
Method: The human breast carcinoma cell line MCF-7 was obtained from the American Type Culture Collection (Manassas, Va.). MCF-7 cells were routinely cultured in DMEM low glucose (Gibco/Life Technologies, Gaithersburg, Md.) supplemented with 10% fetal calf serum (Gibco/Life Technologies, Gaithersburg, Md.). Cells were routinely passaged by trypsinization and dilution when they reached 90% confluence. Cells were seeded into 96-well plates (Falcon-Primaria #3872) at a density of 7000 cells/well for use in RT-PCR analysis.
When cells reached 65-75% confluency, they were treated with oligonucleotide. For cells grown in 96-well plates, wells were washed once with 100 μL OPTI-MEM™-1 reduced-serum medium (Invitrogen Corporation, Carlsbad, Calif.) and then treated with 130 μL of OPTI-MEM™-1 containing 3.75 μg/mL LIPOFECTIN™ (Invitrogen Corporation, Carlsbad, Calif.) and the desired concentration of oligonucleotide. Cells are treated and data are obtained in triplicate. After 4-7 hours of treatment at 37° C., the medium was replaced with fresh medium. Cells were harvested 16-24 hours after oligonucleotide treatment.
Total RNA was isolated using an RNEASY 96™ kit and buffers purchased from Qiagen Inc. (Valencia, Calif.) following the manufacturer's recommended procedures. Briefly, for cells grown on 96-well plates, growth medium was removed from the cells and each well was washed with 200 μL cold PBS. 150 μL Buffer RLT was added to each well and the plate vigorously agitated for 20 seconds. 150 μL of 70% ethanol was then added to each well and the contents mixed by pipetting three times up and down. The samples were then transferred to the RNEASY 96™ well plate attached to a QIAVAC™ manifold fitted with a waste collection tray and attached to a vacuum source. Vacuum was applied for 1 minute. 500 μL of Buffer RW1 was added to each well of the RNEASY 96™ plate and incubated for 15 minutes and the vacuum was again applied for 1 minute. An additional 500 μL of Buffer RW1 was added to each well of the RNEASY 96™ plate and the vacuum was applied for 2 minutes. 1 mL of Buffer RPE was then added to each well of the RNEASY 96™ plate and the vacuum applied for a period of 90 seconds. The Buffer RPE wash was then repeated and the vacuum was applied for an additional 3 minutes. The plate was then removed from the QIAVAC™ manifold and blotted dry on paper towels. The plate was then re-attached to the QIAVAC™ manifold fitted with a collection tube rack containing 1.2 mL collection tubes. RNA was then eluted by pipetting 140 μL of RNAse free water into each well, incubating 1 minute, and then applying the vacuum for 3 minutes.
Quantitation of growth hormone receptor mRNA levels was accomplished by real-time quantitative PCR using the ABI PRISM™ 7600, 7700, or 7900 Sequence Detection System (PE-Applied Biosystems, Foster City, Calif.) according to manufacturer's instructions. This is a closed-tube, non-gel-based, fluorescence detection system which allows high-throughput quantitation of polymerase chain reaction (PCR) products in real-time. As opposed to standard PCR in which amplification products are quantitated after the PCR is completed, products in real-time quantitative PCR are quantitated as they accumulate. This is accomplished by including in the PCR reaction an oligonucleotide probe that anneals specifically between the forward and reverse PCR primers, and contains two fluorescent dyes. A reporter dye (e.g., FAM or JOE, obtained from either PE-Applied Biosystems, Foster City, Calif., Operon Technologies Inc., Alameda, Calif. or Integrated DNA Technologies Inc., Coralville, Iowa) is attached to the 5′ end of the probe and a quencher dye (e.g., TAMRA, obtained from either PE-Applied Biosystems, Foster City, Calif., Operon Technologies Inc., Alameda, Calif. or Integrated DNA Technologies Inc., Coralville, Iowa) is attached to the 3′ end of the probe. When the probe and dyes are intact, reporter dye emission is quenched by the proximity of the 3′ quencher dye. […]

**Q.** Which “% INHIB of human growth hormone receptor mRNA levels” value (shortened to “% INHIB”) does the source give for “227452 (antisense eT*e[5mC]*eA*eG*eG*dG*d[5mC]*dA*dT*dT*d[5mC]*dT*dT*dT*d[5mC]*e[5mC]*eA*eT*eT*e[5mC]) [compound 227452]” here?
**A.** 79%

**Q.** With “227453 (antisense e[5mC]*eA*eT*eA*eA*dT*d[5mC]*dA*dG*dG*dG*d[5mC]*dA*dT*dT*e[5mC]*eT*eT*eT*e[5mC]) [compound 227453]” as the substance, how does the “% INHIB” value read?
**A.** 52%

**Q.** Which “% INHIB” value does the source give for “227464 (antisense e[5mC]*e[5mC]*eT*eT*eT*dA*dA*dT*d[5mC]*dT*dT*dT*dG*dG*dA*eA*e[5mC]*eT*eG*eG) [compound 227464]” here?
**A.** 58%

**Q.** For “227468 (antisense eT*e[5mC]*eA*eT*e[5mC]*dA*dA*dT*dA*dT*d[5mC]*dT*dA*dG*d[5mC]*eT*e[5mC]*eA*eA*eT) [compound 227468]”, which “% INHIB” value is on record?
**A.** 62%

**Q.** Which “% INHIB” value does the source give for “227469 (antisense e[5mC]*eT*eT*eA*eG*dA*dA*dG*dT*d[5mC]*dT*dG*dT*d[5mC]*dT*eG*eT*eG*eT*e[5mC]) [compound 227469]” here?
**A.** 63%

**Q.** Which “% INHIB” value does the source give for “227475 (antisense e[5mC]*e[5mC]*eT*eG*e[5mC]*dT*dG*dG*dT*dG*dT*dA*dA*dT*dG*eT*e[5mC]*eG*e[5mC]*eT) [compound 227475]” here?
**A.** 68%

**Q.** For “227480 (antisense eA*eT*eG*eT*eA*dA*dA*dT*dG*dT*d[5mC]*d[5mC]*dT*d[5mC]*dT*eT*eG*eG*eT*eT) [compound 227480]”, which “% INHIB” value is on record?
**A.** 66%

**Q.** With “227481 (antisense eT*eG*eG*eT*eG*dA*dT*dG*dT*dA*dA*dA*dT*dG*dT*e[5mC]*e[5mC]*eT*e[5mC]*eT) [compound 227481]” as the substance, how does the “% INHIB” value read?
**A.** 45%

**Q.** How did the “% INHIB” value turn out when “227482 (antisense eT*eT*e[5mC]*eT*eG*dT*dG*dG*dT*dG*dA*dT*dG*dT*dA*eA*eA*eT*eG*eT) [compound 227482]” was run?
**A.** 53%

**Q.** How did the “% INHIB” value turn out when “227483 (antisense eA*eG*eG*e[5mC]*eT*dT*dT*d[5mC]*dT*dG*dT*dG*dG*dT*dG*eA*eT*eG*eT*eA) [compound 227483]” was run?
**A.** 75%

**Q.** For “227484 (antisense eT*eG*eG*eT*eA*dA*dG*dG*d[5mC]*dT*dT*dT*d[5mC]*dT*dG*eT*eG*eG*eT*eG) [compound 227484]”, which “% INHIB” value is on record?
**A.** 63%

**Q.** Which “% INHIB” value does the source give for “227488 (antisense eA*eG*eT*eT*eG*dG*dT*d[5mC]*dT*dG*dT*dG*d[5mC]*dT*d[5mC]*eA*e[5mC]*eA*eT*eA) [compound 227488]” here?
**A.** 86%

**Q.** “227489 (antisense eT*eG*eT*eT*e[5mC]*dA*dG*dT*dT*dG*dG*dT*d[5mC]*dT*dG*eT*eG*e[5mC]*eT*e[5mC]) [compound 227489]” was tested. Which “% INHIB” value did it give?
**A.** 75%

**Q.** “227490 (antisense eG*e[5mC]*eA*eT*eG*dA*dT*dT*dT*dT*dG*dT*dT*d[5mC]*dA*eG*eT*eT*eG*eG) [compound 227490]” was tested. Which “% INHIB” value did it give?
**A.** 67%

**Q.** How did the “% INHIB” value turn out when “227499 (antisense eT*eA*eT*eA*eA*dA*dA*dG*dG*dG*d[5mC]*dT*dT*dT*dG*eT*eA*eA*eA*eA) [compound 227499]” was run?
**A.** 14%

**Q.** For “227500 (antisense e[5mC]*eA*eT*eA*eG*d[5mC]*dA*dG*d[5mC]*dA*dA*dA*dG*dT*dA*eG*e[5mC]*eA*eG*eA) [compound 227500]”, which “% INHIB” value is on record?
**A.** 69%

**Q.** With “227501 (antisense eG*e[5mC]*eT*eA*eT*dT*dT*dT*dT*dG*dG*d[5mC]*dT*dA*dT*eA*eG*eA*eA*eA) [compound 227501]” as the substance, how does the “% INHIB” value read?
**A.** 64%

**Q.** How did the “% INHIB” value turn out when “227502 (antisense eG*eA*eT*eT*eG*dA*dG*dG*dT*dA*dT*dT*dT*dA*dG*e[5mC]*eT*eA*eT*eT) [compound 227502]” was run?
**A.** 56%

**Q.** For “272302 (antisense eG*eA*eT*e[5mC]*e[5mC]*dA*dT*dA*d[5mC]*d[5mC]*dT*dG*dT*dA*dG*eG*eA*e[5mC]*e[5mC]*eT) [compound 272302]”, which “% INHIB” value is on record?
**A.** 60%

**Q.** “272303 (antisense e[5mC]*e[5mC]*eA*eG*eA*dG*dA*dT*d[5mC]*d[5mC]*dA*dT*dA*d[5mC]*d[5mC]*eT*eG*eT*eA*eG) [compound 272303]” was tested. Which “% INHIB” value did it give?
**A.** 55%

**Q.** How did the “% INHIB” value turn out when “272304 (antisense eT*eG*e[5mC]*eT*eA*dA*dG*dG*dA*dT*dA*dG*d[5mC]*dT*dG*e[5mC]*eT*eG*eT*eG) [compound 272304]” was run?
**A.** 48%

**Q.** For “272305 (antisense eT*eT*eG*eT*e[5mC]*dT*dT*dT*dA*dG*dG*d[5mC]*d[5mC]*dT*dG*eG*eA*eT*eT*eA) [compound 272305]”, which “% INHIB” value is on record?
**A.** 68%

**Q.** Which “% INHIB” value does the source give for “272306 (antisense eT*eT*eA*eG*eA*dA*dG*dA*dA*dT*dT*dT*dG*dT*d[5mC]*eT*eT*eT*eA*eG) [compound 272306]” here?
**A.** 13%

**Q.** Which “% INHIB” value does the source give for “272307 (antisense eG*eT*eG*eA*eA*dT*dT*dT*dA*dG*dG*d[5mC]*dT*d[5mC]*d[5mC]*eT*eT*eA*eG*eA) [compound 272307]” here?
**A.** 55%

**Q.** “272308 (antisense eG*e[5mC]*eT*eG*eT*dA*dT*dG*dG*dG*dT*d[5mC]*d[5mC]*dT*dA*eG*eG*eT*eT*e[5mC]) [compound 272308]” was tested. Which “% INHIB” value did it give?
**A.** 57%

**Q.** “272309 (antisense eT*eA*eA*e[5mC]*eA*dG*d[5mC]*dT*dG*dT*dT*dT*dT*d[5mC]*d[5mC]*e[5mC]*e[5mC]*eA*eG*e[5mC]) [compound 272309]” was tested. Which “% INHIB” value did it give?
**A.** 85%

**Q.** For “272310 (antisense eT*eT*eT*e[5mC]*eA*dT*d[5mC]*d[5mC]*dA*d[5mC]*dT*dG*dT*dA*d[5mC]*e[5mC]*eA*e[5mC]*e[5mC]*eA) [compound 272310]”, which “% INHIB” value is on record?
**A.** 76%

**Q.** With “272311 (antisense eT*eT*eG*e[5mC]*eA*d[5mC]*dT*dA*dT*dT*dT*d[5mC]*dA*dT*d[5mC]*eA*eA*e[5mC]*eA*eG) [compound 272311]” as the substance, how does the “% INHIB” value read?
**A.** 47%

**Q.** “272312 (antisense eG*eG*eG*eT*eG*dG*dA*dT*d[5mC]*dT*dG*dG*dT*dT*dG*e[5mC]*eA*e[5mC]*eT*eA) [compound 272312]” was tested. Which “% INHIB” value did it give?
**A.** 57%

**Q.** How did the “% INHIB” value turn out when “272313 (antisense eA*eT*eT*eG*e[5mC]*dG*dT*dG*dG*dT*dG*d[5mC]*dT*dT*d[5mC]*e[5mC]*e[5mC]*eA*eT*e[5mC]) [compound 272313]” was run?
**A.** 77%

**Q.** For “272314 (antisense eT*eA*eG*eG*eG*dT*d[5mC]*d[5mC]*dA*dT*d[5mC]*dA*dT*dT*dT*eT*e[5mC]*e[5mC]*eA*eT) [compound 272314]”, which “% INHIB” value is on record?
**A.** 56%

**Q.** For “272315 (antisense e[5mC]*eA*eA*eT*eG*dA*dG*dT*dA*d[5mC]*dA*d[5mC]*dT*dG*dG*eA*eA*e[5mC]*eT*eG) [compound 272315]”, which “% INHIB” value is on record?
**A.** 53%

**Q.** For “272316 (antisense eA*eA*e[5mC]*eT*e[5mC]*dG*d[5mC]*d[5mC]*dA*dT*dA*dA*dT*dT*dT*e[5mC]*e[5mC]*eA*eG*eA) [compound 272316]”, which “% INHIB” value is on record?
**A.** 64%

**Q.** With “272317 (antisense eA*eG*e[5mC]*e[5mC]*e[5mC]*dA*dA*dA*dT*dA*dT*dT*d[5mC]*d[5mC]*dA*eA*eA*eG*eA*eT) [compound 272317]” as the substance, how does the “% INHIB” value read?
**A.** 65%

**Q.** “272319 (antisense eA*eT*eT*eT*eT*d[5mC]*d[5mC]*dT*dT*d[5mC]*d[5mC]*dT*dT*dG*dA*eG*eG*eA*eG*eA) [compound 272319]” was tested. Which “% INHIB” value did it give?
**A.** 67%
